In US11571460B2 (priority 2017, dated 2023):

What was measured:
[1] = system: Lewis lung carcinoma cells; assay: Tumor growth and survival in mice injected subcutaneously with Lewis lung carcinoma cells; type: in vivo, C57BL/6 mice
Procedure: A cancer growth rate in the control group was fast, but the cancer growth in the melittin-treated group was late.
(§1) Lewis lung carcinoma cells were mixed with a Matrigel matrix (Coming, N.Y., USA) to generate a tumor model. Male C57BL/6 wild-type mice (6 to 8 weeks old) were inoculated subcutaneously in the right flank with 5×10^4 cells per mouse. […] Before 3 days of tumor injection, macrophage deficiency was performed by clodronate liposomes (first dose of 200 μl per mouse, maintenance dose of 100 μl intraperitoneally every 4 days). Clodronate liposome and control liposome were purchased from FormuMax (Sunnyvale, Calif., USA). A tumor size was monitored every 2 to 3 days by measuring two opposite diameters (volume=length×width×width/2). If the tumor size exceeded 5% of the body weight, the mice were sacrificed for a next experiment set. Thereafter, the tumor and the spleen were surgically removed.

[2] = Blood cell profile test (hematological profiling); type: in vivo, mice
Procedure: The blood was collected from the retro-orbital plexus of mice under anesthesia. The blood was immediately mixed with EDTA and analyzed by a Hemavet 950 auto-sampler (Drew scientific, Waterbury, Conn., USA) according to manufacturer's instructions. The parameters of leukocytes, erythrocytes, and platelets were measured and expressed as a percentage.
The blood was collected via the retro-orbital plexus during anesthesia.

[3] = system: lung cancer cells; assay: Cell cycle analysis by PI staining and flow cytometry; type: cell-based; details: 0.1 to 2 μg/mL melittin
Procedure: The cells were collected, washed twice with PBS, fixed with 70% pre-cooled ethanol and stored at −20° C. overnight. The cells were washed and resuspended in PBS 500 μl containing 0.1% Triton X-100 and RNase 20 μg/ml. Next, 50 μg/ml of propidium iodide (PI) was added. Stained cells were cultured at 37° C. for 20 minutes and then detected by a FACS Calibur flow cytometer (Becton Dickinson, San Jose, Calif., USA). Data were analyzed by Flow Jo software (Treestar, Inc., San Carlos, Calif., USA).

[4] = system: splenocytes; assay: Flow cytometry of immune cells in splenocytes of tumor-bearing mice; type: in vivo
Procedure: A tissue was dissociated by cutting the tumor into thin pieces and gently stirring in DNase I (1 U/ml; Roche, Indianapolis, trypsin-EDTA (Gibco)) under DMEM (Welgene) preheated at 37° C. for 1 hour. The tissue was mechanically dissociated in a 100 μm nylon mesh strainer, then single cells passed through a 40 μm nylon mesh strainer, and the spleen was mechanically dissociated with a 40 μm nylon mesh strainer. RBC was dissolved for 5 minutes in a 1× pharmlyse buffer.
The cells were stained with fluorescent tag antibodies. All data were detected by a FACS Calibur flow cytometer and analyzed with FlowJo software. CD45-FITC, CD3-FITC, CD4-PE, CD4-FITC, CD8-APC, CD11b-APC, CD11 c-PE, CD25 (CD12-FITC)-PE, CD25-APC, B220-FITC, CD19-PE, CD86-APC, and Foxp3-Alexa Fluor647 were purchased from BD bioscience and F4/80-PE and CD206-APC were purchased from Biolegend (San Diego, Calif., USA).
as §1
Screening of the immune cells was performed by flow cytometry on CD4^+ T cells, CD8^+ T cells, B cells, dendritic cells, and macrophages from splenocytes of mice with cancer. The flow cytometry was performed in the same manner as Example 3-2.

[5] = system: bone marrow-derived macrophages (BMDM); assay: Quantitative real-time PCR in bone marrow-derived macrophages; type: cell-based, mouse
Procedure: Cells were harvested as previously described to generate mouse bone marrow-derived macrophages. The cells were cultured for 7 days in an RPMI-1640 complete culture medium containing 10 ng/ml of mouse recombinant M-CSF (R & D systems, Minneapolis, Minn., USA). After the cells were differentiated into M0 macrophages, the cells were smeared in a 6-well plate (1×10^6 cells/well) and cultured overnight under 100 ng/ml LPS or 20 ng/ml mouse recombinant IL-4 (R & D system) to induce differentiation of M1 or M2 phenotype macrophages.
Quantitative real time PCR was performed according to previous reports. Data were expressed as […] for experimental genes, normalized to GAPDH, and expressed as a fold change compared to an LPS or IL-4 untreated control group. The following primers were used: Gapdh(for: […] (SEC) ID NO: 1); rev: […] (SEQ ID NO: 2)), Tnf-α(for: TTCTG […] (SEQ ID NO: 3); rev: GTAT […] (SEQ ID NO: 4), Mrc1/CD206(for: […] (SEQ ID NO: 5); rev: GGTT […] (SEQ ID NO: 6)), I1-10(for: […] (SEQ ID NO: 7); rev: […] (SEQ ID NO: 8)), Tgf-β(for: […] (SEQ ID NO: 9); rev: […] (SEQ ID NO: 10)), Vegf(for: GGAGA […] (SEQ ID NO: 11); rev: […](SEQ ID NO: 12)), F1t1/VEGFR1(for: […] (SEQ. ID NO: 13); rev: […] (SEQ ID NO: 14)).

[6] = system: tumor tissue; assay: Immunofluorescence confocal microscopy of VEGF and CD31 in tumor tissue; type: in vivo, mice
Procedure: The tumor of inoculated mice was fixed overnight with paraformaldehyde, dehydrated, and then placed in paraffin. Slices (5 μm thick) of the inserted tissue were cut in a rotary microtome and deparaffinized. The antigens of the slides were recovered by an autoclave in a trisodium citrate buffer (pH 6) for 1 minute, washed with PBS and then blocked for 1 hour with 1.5% BSA containing 0.2% Triton X-100. The slides were cultured overnight at 4° C. with anti-VEGF and anti-CD31 primary antibodies (1:200, Santa Cruz Biotechnology, Santa Cruz, Calif., USA).
All tissue slices were cultured at room temperature for 1 hour and then visualized with an alexa-488 or alexa-594 conjugated secondary antibody (1:500, Invitrogen). All the antibodies were diluted with a 0.5% BSA solution and cultured in a wet chamber. The slides were fixed with a DAPI solution and analyzed by laser scanning confocal microscopy (Bio-Rad, Richmond, Calif., USA). All images were captured with LSM and total integration density was measured with image J software.

[7] = melittin-treated tumor-bearing mice

CC[C@H](C)[C@H](NC(=O)CN)C(=O)NCC(=O)N[C@@H](C)C(=O)N[C@H](C(=O)N[C@@H](CC(C)C)C(=O)N[C@@H](CCCCN)C(=O)N[C@H](C(=O)N[C@@H](CC(C)C)C(=O)N[C@H](C(=O)N[C@H](C(=O)NCC(=O)N[C@@H](CC(C)C)C(=O)N1CCC[C@H]1C(=O)N[C@@H](C)C(=O)N[C@@H](CC(C)C)C(=O)N[C@H](C(=O)N[C@@H](CO)C(=O)N[C@@H](Cc1c[nH]c2ccccc12)C(=O)N[C@H](C(=O)N[C@@H](CCCCN)C(=O)N[C@@H](CCCNC(=N)N)C(=O)N[C@@H](CCCCN)C(=O)N[C@@H](CCCNC(=N)N)C(=O)N[C@@H](CCC(N)=O)C(=O)N[C@@H](CCC(N)=O)C(N)=O)[C@@H](C)CC)[C@@H](C)CC)[C@@H](C)O)[C@@H](C)O)C(C)C)C(C)C [melittin]
cancer growth reduced compared to the control group ([1]; 0.5 mg/kg melittin peptide intraperitoneal, after 13 days of administration): 40%
cancer growth suppressed compared to the control group ([1]; 0.5 mg/kg melittin peptide intraperitoneal, day 15): about 45%
survival period vs control group (PBS-treated), Mantel-Cox analysis ([1]; tumor-bearing mice): significantly longer
hematological factors (WBC, RBC, Hgb, HCT, MCV and MCH) ([2]; 0.5 mg/kg or 1 mg/kg melittin): did not result in significant changes
acute cytotoxic damage ([2]; judged from N/L ratio): does not cause acute cytotoxic damage
direct killing effect on cancer cells [3]: no direct killing effect
percentage of cells at each cell cycle stage ([3]; 24 hours): no percentage change
other immune cells from total splenocytes ([4]; control vs melittin-treated groups): no percentage change
CD45+F480+ macrophages in splenocytes [4, 7]: 5.10±0.42
number of regulatory T cells in splenocytes [4, 7]: decreased slightly
level of M1 or M2 type macrophages in splenocytes ([4]; spleen): not changed
gene level of TNF-α ([5]; LPS stimulation): did not affect
gene expression level of IL-10 ([5]; M2-type BMDM (IL-4)): not changed
gene expression level of TGF-β ([5]; M2-type BMDM (IL-4)): not changed
mRNA level for Mrc1/Cd206 compared to the control group ([5]; M2-type BMDM (IL-4)): significantly reduced
mRNA level for Vegf compared to the control group ([5]; M2-type BMDM (IL-4)): significantly reduced
integrated density of VEGF (image J) ([6]; 0.5 mg/kg and 1 mg/kg vs PBS control group): significant difference
level of CD31 by immunofluorescence staining ([6]; compared to a PBS group): decrease
level of VEGF by immunofluorescence staining ([6]; compared to a PBS group): decrease
